Experiment [1] addresses T1, GST-PPARG-LBD (Homo sapiens, UniProt P37231).
T1 construct: A mixture of 5 nM GST-PPARG-LBD; purchased Invitrogen
T1 sequence (P37231 238-503 limits assumed): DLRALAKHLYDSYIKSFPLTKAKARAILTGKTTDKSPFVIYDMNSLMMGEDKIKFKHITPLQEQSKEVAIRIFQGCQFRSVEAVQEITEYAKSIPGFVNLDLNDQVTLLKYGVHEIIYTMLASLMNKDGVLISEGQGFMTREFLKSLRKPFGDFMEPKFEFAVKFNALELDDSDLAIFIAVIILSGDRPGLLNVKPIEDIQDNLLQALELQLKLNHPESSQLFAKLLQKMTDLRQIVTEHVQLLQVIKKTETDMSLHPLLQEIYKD
Kind of experiment: Lanthascreen PPARG competitive binding assay (Invitrogen). The conditions noted are these: Table 3; for IC50: read-out: IC50 (nM) Lantha. On the procedure:
Lanthascreen PPARG Competitive Binding Assay (Invitrogen)
The assay was performed according to manufacturer protocol. A mixture of 5 nM GST-PPARG-LBD, 5 nM Tb-GST-antibody, 5 nM Fluormone Pan-PPAR Green, and serial dilutions of the experimental compound, beginning at 10 μM downwards, was added to wells of black 384-well low-volume plates (Greiner) to a total volume of 18 μL. All dilutions were made in TR-FRET assay buffer C. DMSO at 2% final concentration was used as a no-ligand control. Experiment was performed in triplicate, and incubated for 2 hours in the dark prior to assay read in Perkin Elmer ViewLux ultra HTS microplate reader. FRET signal was measured by excitation at 340 nm and emission at 520 nm for fluorescein and 490 nm for terbium. Fold change over DMSO was calculated using GraphPad Prism Software (La Jolla, Calif.) by calculating 520 nm/490 nm ratio. Graphs were plotted as fold change of FRET signal for compound treatment over DMSO-only control.
(In general: In TR-FRET formats the signal depends on donor and acceptor labels being close together.)

In experiment [2] the target is T2, PPARG (Homo sapiens, UniProt P37231).
T2 construct: own inference from the column head
T2 sequence (P37231 1-505): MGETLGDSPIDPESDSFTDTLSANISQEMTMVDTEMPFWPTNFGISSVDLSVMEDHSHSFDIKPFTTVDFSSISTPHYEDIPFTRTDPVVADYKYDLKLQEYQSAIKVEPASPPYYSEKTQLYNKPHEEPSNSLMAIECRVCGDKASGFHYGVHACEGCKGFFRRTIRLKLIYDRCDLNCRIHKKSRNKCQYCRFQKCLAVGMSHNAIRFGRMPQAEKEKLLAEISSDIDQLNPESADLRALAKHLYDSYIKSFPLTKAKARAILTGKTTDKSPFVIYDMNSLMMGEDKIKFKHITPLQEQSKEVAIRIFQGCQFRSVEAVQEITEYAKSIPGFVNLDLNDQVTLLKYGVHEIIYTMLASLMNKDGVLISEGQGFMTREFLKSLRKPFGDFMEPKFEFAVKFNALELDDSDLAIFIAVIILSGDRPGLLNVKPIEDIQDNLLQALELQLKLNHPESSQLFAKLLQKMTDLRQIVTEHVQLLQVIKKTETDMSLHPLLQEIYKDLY
The experiment can be described thus: Gal4 transactivation assay. The experiment is classed as cell-based. The conditions noted are these: Table 3.

Experiment [3] has as its system PPARG. The experiment can be described thus: Cell-based transactivation assay (3xPPRE-luciferase reporter, COS-1 cells co-transfected with PPARG). Also noted: species or system murine or human (not said which for the values). On the procedure: Cell-Based Transactivation Assay: PPRE is a DNA that contains a binding site for PPARG; thus PPRE is a PPAR response element, used herein as a promoter reporter. The binding site is a DR1 response element with the sequence [NT] repeated 3 times in tandem and then fused to a construct for luciferase. Thus, PPRE is the basis of the cell based transactivation assay described below. The plasmid DNA is co-transfected along with a plasmid for PPARG into COS-1 cells. After an overnight incubation, cells are treated with DMSO or compounds. […] Transfected cells were plated in white Perkin Elmer 384-well plates and incubated 4 hours. […] After 18 hour incubation, treated cells were developed with Brite Lite Plus (Perkin Elmer) and read in 384-well Luminescence Perkin Elmer EnVision Multilabel plate reader. Graphs were plotted in triplicate in GraphPad Prism Software as fold change of treated cells over DMSO control cells.
(Reporter assays use an easily measured gene product as a stand-in for the process of interest.)

Each structure is given as a SMILES string.

The IC50 is the concentration that gives 50% inhibition. By EC50 is commonly meant the midpoint of the concentration-response curve. A low value points to a more potent agent.

As to `CC(C)c1cccc([C@H](C)NC(=O)c2ccc3c(c2)ncn3[C@@H](C)c2ccc(Cl)cc2)c1` [Cpd 15], the IC50 in experiment [1] was found to be 2520 nM.

`C[C@H](NC(=O)c1ccc2c(c1)ncn2Cc1ccc(Cl)cc1)c1ccc(Br)cc1` [Cpd 16]: the IC50 in experiment [1] came to 2380 nM.

Turning to `CC(C)c1cccc([C@H](C)NC(=O)c2ccc3c(c2)ncn3Cc2ccc(Cl)cc2)c1` [Cpd 17], the IC50 in experiment [1] worked out at 4400 nM.

Turning to `C[C@@H](CC1CCOCC1)NC(=O)c1ccc2c(c1)ncn2Cc1ccc(Cl)cc1` [Cpd 19], the IC50 in experiment [1] was 2100 nM.

`O=C(NCC1CC1)c1ccc2c(c1)ncn2Cc1ccc(Cl)cc1` [Cpd 20]: the IC50 in experiment [1] turned out to be 18300 nM.

For the compound `Cc1nc2cc(C(=O)N[C@@H](C)c3cccc(Br)c3)ccc2n1Cc1cccc(O[C@H](C)C(=O)O)c1` [Cpd 21], the “IC50 (nM) Lantha” value in experiment [1] was found to be 1e+08 nM.

Consider `COCCCNC(=O)c1ccc2c(c1)ncn2Cc1ccc(Cl)cc1` [Cpd 22], for which the IC50 in experiment [1] is 7330 nM.

As to `CCOCCNC(=O)c1ccc2c(c1)ncn2Cc1ccc(Cl)cc1` [Cpd 23], the IC50 in experiment [1] turned out to be 3710 nM.

With `COCCNC(=O)c1ccc2c(c1)ncn2Cc1ccc(Cl)cc1` [Cpd 24], the IC50 in experiment [1] turned out to be 6360 nM.

As to `COC[C@H](C)NC(=O)c1ccc2c(c1)ncn2Cc1ccc(Cl)cc1` [Cpd 25], the IC50 in experiment [1] was determined as 5220 nM.

Consider `O=C(NCC[C@H]1CCO1)c1ccc2c(c1)ncn2Cc1ccc(Cl)cc1` [Cpd 26], for which, in experiment [1], the IC50 was 6770 nM.

Regarding `CCCCNC(=O)c1ccc2c(c1)ncn2Cc1ccc(Cl)cc1` [Cpd 28], the IC50 in experiment [1] is 1420 nM.

On to `O=C(NCC1CCC1)c1ccc2c(c1)ncn2Cc1ccc(Cl)cc1` [Cpd 29], for which the IC50 in experiment [1] amounted to 7950 nM.

Take `CC(C)CCC(C)NC(=O)c1ccc2c(c1)ncn2Cc1ccc(Cl)cc1` (stereo not drawn) [Cpd 30]: the IC50 in experiment [1] was 42.3 nM. In addition, in experiment [2], the EC50 turned out to be 636 nM, the “GL4 % act 1 μM” value worked out at 96.37% and the “GL4 % act 10 μM” value came out at 109.37%.

Take `CC(C)CC(C)NC(=O)c1ccc2c(c1)ncn2Cc1ccc(Cl)cc1` (stereo not drawn) [Cpd 31]: the IC50 in experiment [1] turned out to be 31.8 nM. In addition, in experiment [2], a half-maximal effect (EC50) was put at 12200 nM, the “GL4 % act 1 μM” value is 34.29% and the “GL4 % act 10 μM” value is 68.66%.

`CCc1nc2cc(C(=O)N[C@@H](C)c3cccc(C(C)C)c3)ccc2n1Cc1cccc(O[C@@H](C)C(=O)O)c1` [Cpd 32]: the IC50 in experiment [1] came to 2030 nM.

For `Cc1nc2cc(C(=O)N[C@@H](C)c3cccc(C(C)C)c3)ccc2n1Cc1cccc(O[C@@H](C)C(=O)O)c1` [Cpd 33], in experiment [1], the IC50 was 2420 nM.

For `CC(C)CCNC(=O)c1ccc2c(c1)ncn2Cc1ccc(Cl)cc1` [Cpd 34], the IC50 in experiment [1] came out at 1090 nM.

In the case of `CCCc1nc2cc(C(=O)N[C@@H](C)c3cccc(C(C)C)c3)ccc2n1Cc1cccc(O[C@@H](C)C(=O)O)c1` [Cpd 35], in experiment [1], the IC50 was 2410 nM.

As to `COCCOCc1ccc2c(c1)ncn2Cc1ccc(Cl)cc1` [Cpd 36], the IC50 in experiment [1] was 13700 nM.

With `COC(=O)[C@H](C)NC(=O)c1ccc2c(c1)ncn2Cc1ccc(Cl)cc1` [Cpd 38], the IC50 in experiment [1] was 2160 nM.

As for `COC[C@@H](NC(=O)c1ccc2c(c1)ncn2Cc1ccc(Cl)cc1)C(C)C` [Cpd 39], the IC50 in experiment [1] stood at 612 nM. In experiment [2], the midpoint of the response, the EC50, lay at 442 nM and the “GL4 % act 1 μM” value was 62.18%.

Turning to `CC(C)[C@@H](CO)NC(=O)c1ccc2c(c1)ncn2Cc1ccc(Cl)cc1` [Cpd 40], in experiment [1], the IC50 turned out to be 3250 nM.

Consider `CC(C)c1cccc([C@H](C)NC(=O)c2ccc3c(c2)ncn3[C@H](C)c2ccc(Cl)cc2)c1` [Cpd 41], for which the IC50 in experiment [1] came out at 11000 nM.

For `O=C(N[C@H](CO)c1ccccc1)c1ccc2c(c1)ncn2Cc1ccc(Cl)cc1` [Cpd 42], the IC50 in experiment [1] came to 921 nM.

`COC(=O)[C@@H](NC(=O)c1ccc2c(c1)ncn2Cc1ccc(Cl)cc1)c1ccccc1` [Cpd 43]: the IC50 in experiment [1] amounted to 237 nM. In experiment [2], the EC50 was found to be 752 nM and the “GL4 % act 1 μM” value is reported as 51.21%.

As to `C[C@@H](CO)NC(=O)c1ccc2c(c1)ncn2Cc1ccc(Cl)cc1` [Cpd 46], in experiment [1], the IC50 turned out to be 24400 nM.

Turning to `CC(C)CC(C)NC(=O)c1ccc2c(c1)ncn2[C@H](C)c1ccc(Cl)cc1` (stereo partly drawn) [Cpd 47], the 50% inhibitory concentration (IC50) in experiment [1] stood at 8400 nM.

For `CC(C)CCC(C)NC(=O)c1ccc2c(c1)ncn2[C@H](C)c1ccc(Cl)cc1` (stereo partly drawn) [Cpd 48], in experiment [1], the IC50 was determined as 1260 nM.

As to `CC(C)c1cccc([C@H](C)NC(=O)c2ccc3c(c2)ncn3Cc2ccc(Cl)nc2)c1` [Cpd 49], the IC50 in experiment [1] stood at 2050 nM.

As to `CC(C)c1cccc([C@@H](C)NC(=O)c2ccc3c(c2)ncn3Cc2ccc(Cl)cc2)c1` [Cpd 50], the IC50 in experiment [1] was found to be 162 nM. In addition, in experiment [2], the EC50 came out at 44.1 nM and the “GL4 % act 1 μM” value came out at 54.52%.

Regarding `CC[C@@H](NC(=O)c1ccc2c(c1)ncn2Cc1ccc(Cl)cc1)c1ccccc1` [Cpd 51], in experiment [1], the IC50 came to 1050 nM. Also, in experiment [2], a half-maximal response (EC50) required 3910 nM and the “GL4 % act 1 μM” value is 76.12%.

Turning to `CC[C@H](NC(=O)c1ccc2c(c1)ncn2Cc1ccc(Cl)cc1)c1ccccc1` [Cpd 52], the IC50 in experiment [1] was 403 nM. In experiment [2], the EC50 stood at 99.3 nM and the “GL4 % act 1 μM” value was determined as 30.41%.

Turning to `COc1ccc(C(=O)n2c(C)c(Cc3cccc(O[C@@H](C)C(=O)O)c3)c3cc(OC(F)(F)F)ccc32)cc1` [MRL24], in experiment [3] (relative to rosiglitazone), the “transactivation of the reporter, % of rosiglitazone response” value is “about 25%”.

For `CN(CCOc1ccc(CC2SC(=O)NC2=O)cc1)c1ccccn1` (stereo not drawn) [rosiglitazone], the “activation of the PPRE reporter” value in experiment [3] (over DMSO) is given as “about 5 fold”.
